Source: patent US8575183B2, “Heterocyclic compounds and their uses” (priority 2010, dated 2013)

target: T1, PI3k δ (Homo sapiens, UniProt O00329); assay: biochemical; format: biochemical; conditions: not given
T1 construct: Full length p110 subunits of PI3k α, β and δ; polyHis (N); made in house; host or cells: Sf9 insect cells (baculovirus)
Experimental: Full length p110 subunits of PI3k α, β and δ, N-terminally labeled with polyHis tag, were coexpressed with p85 with Baculo virus expression vectors in sf9 insect cells. P110/p85 heterodimers were purified by sequential Ni-NTA, Q-HP, Superdex-100 chromatography. Purified α, β and δ isozymes were stored at −20° C. in 20 mM Tris, pH 8, 0.2M NaCl, 50% glycerol, 5 mM DTT, 2 mM Na cholate. […] The γ isozyme was purified by sequential Ni-NTA, Superdex-200, Q-HP chromatography. The γ isozyme was stored frozen at −80° C. in NaH2PO4, pH 8, 0.2M NaCl, 1% ethylene glycol, 2 mM β-mercaptoethanol.
Phospatidyl inositol phosphoacceptor, Ptdlns(4,5)P2 P4508, was from Echelon Biosciences. […] Test compounds were dissolved in dimethyl sulfoxide and diluted with three-fold serial dilutions. The compound in DMSO (1 μL) was added per test well, and the inhibition relative to reactions containing no compound, with and without enzyme was determined. After assay incubation at rt, the reaction was stopped and residual ATP determined by addition of an equal volume of a commercial ATP bioluminescence kit (Perkin Elmer EasyLite) according to the manufacturer's instructions, and detected using a AnalystGT luminometer.

T1 sequence (O00329 whole entry): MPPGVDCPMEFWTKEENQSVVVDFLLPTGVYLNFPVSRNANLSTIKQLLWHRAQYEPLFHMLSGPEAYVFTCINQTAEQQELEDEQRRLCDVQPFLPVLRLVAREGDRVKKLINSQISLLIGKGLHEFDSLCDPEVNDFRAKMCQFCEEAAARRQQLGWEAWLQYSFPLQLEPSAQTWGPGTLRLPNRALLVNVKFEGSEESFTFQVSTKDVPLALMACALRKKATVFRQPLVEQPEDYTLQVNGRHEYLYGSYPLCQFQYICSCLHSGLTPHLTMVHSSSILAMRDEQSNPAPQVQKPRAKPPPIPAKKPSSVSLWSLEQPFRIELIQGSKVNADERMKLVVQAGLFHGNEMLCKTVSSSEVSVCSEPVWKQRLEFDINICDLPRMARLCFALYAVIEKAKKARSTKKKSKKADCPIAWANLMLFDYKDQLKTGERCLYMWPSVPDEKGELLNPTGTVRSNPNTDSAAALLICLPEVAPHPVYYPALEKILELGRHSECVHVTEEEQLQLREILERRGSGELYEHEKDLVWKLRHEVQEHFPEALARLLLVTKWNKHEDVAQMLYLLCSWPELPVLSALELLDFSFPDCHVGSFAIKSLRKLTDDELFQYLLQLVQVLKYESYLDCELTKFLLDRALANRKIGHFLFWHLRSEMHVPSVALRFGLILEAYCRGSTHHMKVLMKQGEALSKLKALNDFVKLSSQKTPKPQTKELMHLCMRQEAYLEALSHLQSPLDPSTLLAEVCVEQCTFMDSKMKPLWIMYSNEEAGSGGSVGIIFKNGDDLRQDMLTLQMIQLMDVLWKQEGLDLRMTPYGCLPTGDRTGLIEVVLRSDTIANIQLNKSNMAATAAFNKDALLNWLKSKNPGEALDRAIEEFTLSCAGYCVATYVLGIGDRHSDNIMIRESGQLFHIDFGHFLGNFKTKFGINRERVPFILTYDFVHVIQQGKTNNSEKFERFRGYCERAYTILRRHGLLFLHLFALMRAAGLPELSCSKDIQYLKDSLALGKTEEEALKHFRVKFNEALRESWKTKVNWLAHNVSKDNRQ
T1 sequence (P27986 whole entry partner): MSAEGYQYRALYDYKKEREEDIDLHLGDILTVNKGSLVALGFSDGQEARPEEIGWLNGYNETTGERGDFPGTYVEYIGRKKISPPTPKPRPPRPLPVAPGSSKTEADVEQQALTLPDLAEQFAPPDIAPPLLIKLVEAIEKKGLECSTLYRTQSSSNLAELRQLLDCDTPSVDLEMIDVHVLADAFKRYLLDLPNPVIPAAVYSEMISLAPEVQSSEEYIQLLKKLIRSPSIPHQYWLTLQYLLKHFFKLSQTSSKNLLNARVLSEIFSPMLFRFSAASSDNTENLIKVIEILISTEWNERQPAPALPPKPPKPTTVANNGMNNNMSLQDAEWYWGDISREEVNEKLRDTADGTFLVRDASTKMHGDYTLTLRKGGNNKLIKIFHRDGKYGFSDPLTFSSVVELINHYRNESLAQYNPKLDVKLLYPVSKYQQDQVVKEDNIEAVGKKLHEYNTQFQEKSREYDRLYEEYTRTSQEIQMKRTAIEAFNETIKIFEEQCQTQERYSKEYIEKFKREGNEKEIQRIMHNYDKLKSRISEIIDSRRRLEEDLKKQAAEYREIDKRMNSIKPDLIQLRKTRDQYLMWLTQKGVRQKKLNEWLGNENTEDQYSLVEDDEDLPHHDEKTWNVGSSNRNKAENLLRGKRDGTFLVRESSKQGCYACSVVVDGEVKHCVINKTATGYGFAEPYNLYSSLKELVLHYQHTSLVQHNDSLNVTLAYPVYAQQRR

Question: `C[C@H](Nc1ncnc(N)c1C#N)c1nc2ccc(F)cc2n1-c1cncc(-c2ccccn2)c1` [4-amino-6-(((1S)-1-(1-(2,3′-bipyridin-5′-yl)-6-fluoro-1H-benzimidazol-2-yl)ethyl)amino)-5-pyrimidinecarbonitrile] was tested. Which Ki did it give?
Answer: 0.248 µM

Question: How did the Ki turn out when `CC(Nc1ncnc(N)c1C#N)c1nc2ncccc2n1-c1ccccn1` (stereo not shown) was run?
Answer: 2.9 µM

same assay, conditions: read-out: PI3k δ Ki

Question: Which Ki does the source give for `CC[C@H](Nc1ncnc(N)c1C#N)c1nc2cccc(C(F)(F)F)c2n1Cc1ccc(F)cc1` [4-amino-6-(((1S)-1-(1-(4-fluorobenzyl)-7-(trifluoromethyl)-1H-benzimidazol-2-yl)propyl)amino)-5-pyrimidinecarbonitrile] here?
Answer: 0.464 µM

Question: With `CNC(=O)c1cccc2nc([C@H](C)Nc3ncnc(N)c3C#N)c(-c3ccccc3)n12` [2-((1S)-1-((6-amino-5-cyano-4-pyrimidinyl)amino)ethyl)-N-methyl-3-phenylimidazo[1,2-a]pyridine-5-carboxamide] as the compound, how does the Ki read?
Answer: 0.0262 µM

Question: For `C[C@H](Nc1ncnc(N)c1C#N)c1nc2c(F)cc(F)cc2n1-c1cc(F)cc(F)c1` [4-amino-6-(((1S)-1-(1-(3,5-difluorophenyl)-4,6-difluoro-1H-benzimidazol-2-yl)ethyl)amino)-5-pyrimidinecarbonitrile], which Ki is on record?
Answer: 0.0026 µM

Question: With `CNC(=O)c1cccc2nc([C@H](C)Nc3ncnc(N)c3S(C)(=O)=O)n(C3CC3)c12` [2-((1S)-1-((6-amino-5-(methylsulfonyl)-4-pyrimidinyl)amino)ethyl)-1-cyclopropyl-N-methyl-1H-benzimidazole-7-carboxamide] as the compound, how does the Ki read?
Answer: 0.03 µM

Question: For `C[C@H](Nc1ncnc(N)c1C#N)c1nc2ccc(F)cc2n1-c1cncc(NS(C)(=O)=O)c1` [N-(5-(2-((1S)-1-((6-amino-5-cyano-4-pyrimidinyl)amino)ethyl)-6-fluoro-1H-benzimidazol-1-yl)-3-pyridinyl)methanesulfonamide], which Ki is on record?
Answer: 0.0119 µM

Question: How did the Ki turn out when `C[C@H](Nc1ncnc(N)c1C#N)c1nc2cccc(S(C)(=O)=O)c2n1Cc1ccc(F)cc1` [4-amino-6-(((1S)-1-(1-(4-fluorobenzyl)-7-(methylsulfonyl)-1H-benzimidazol-2-yl)ethyl)amino)-5-pyrimidinecarbonitrile] was run?
Answer: 0.0268 µM

Question: For `C[C@H](Nc1ncnc(N)c1C#N)c1nc2ccc(F)cn2c1-c1cc(F)cc(Cl)c1` [4-amino-6-(((1S)-1-(3-(3-chloro-5-fluorophenyl)-6-fluoroimidazo[1,2-a]pyridin-2-yl)ethyl)amino)-5-pyrimidinecarbonitrile], which Ki is on record?
Answer: 0.0088 µM

Question: For `COC(=O)c1cccc2nc([C@H](C)Nc3ncnc(N)c3C#N)c(-c3cncc(F)c3)n12` [methyl 2-((1S)-1-((6-amino-5-cyano-4-pyrimidinyl)amino)ethyl)-3-(5-fluoro-3-pyridinyl)imidazo[1,2-a]pyridine-5-carboxylate], which Ki is on record?
Answer: 0.314 µM

Question: `C[C@H](Nc1ncnc(N)c1C#N)c1nc2cc(F)ccc2n1-c1ccccc1` [4-amino-6-(((1S)-1-(5-fluoro-1-phenyl-1H-benzimidazol-2-yl)ethyl)amino)-5-pyrimidinecarbonitrile] was tested. Which Ki did it give?
Answer: 0.0017 µM

Question: With `C[C@H](Nc1ncnc(N)c1C#N)c1nc2c(F)cccc2n1-c1cncc(F)c1` [4-amino-6-(((1S)-1-(4-fluoro-1-(5-fluoro-3-pyridinyl)-1H-benzimidazol-2-yl)ethyl)amino)-5-pyrimidinecarbonitrile] as the compound, how does the Ki read?
Answer: 0.047 µM

Question: With `C[C@@H](Nc1ncnc(N)c1C#N)c1nc2ccc(F)cc2n1-c1cccc(F)n1` [4-amino-6-(((1R)-1-(6-fluoro-1-(6-fluoro-2-pyridinyl)-1H-benzimidazol-2-yl)ethyl)amino)-5-pyrimidinecarbonitrile] as the compound, how does the Ki read?
Answer: 0.755 µM

Question: For `C[C@H](Nc1ncnc(N)c1C#N)c1nc2cccc(F)c2n1C1CC1` [4-amino-6-(((1S)-1-(1-cyclopropyl-7-fluoro-1H-benzimidazol-2-yl)ethyl)amino)-5-pyrimidinecarbonitrile], which Ki is on record?
Answer: 0.0122 µM

Question: `C[C@H](Nc1ncnc(N)c1C#N)c1nc2ccc(F)cc2n1CC1CC1` [4-amino-6-(((1S)-1-(1-(cyclopropylmethyl)-6-fluoro-1H-benzimidazol-2-yl)ethyl)amino)-5-pyrimidinecarbonitrile] was tested. Which Ki did it give?
Answer: 0.0031 µM

Question: `C[C@H](Nc1ncnc2[nH]cnc12)c1nc2cccc(F)c2[nH]1` [N-((1S)-1-(7-fluoro-1H-benzimidazol-2-yl)ethyl)-9H-purin-6-amine] was tested. Which Ki did it give?
Answer: 0.65 µM

Question: `C[C@H](Nc1ncnc2[nH]cnc12)c1nc2ccc(Cl)cc2n1-c1cc(F)cc(F)c1` [N-((1S)-1-(6-chloro-1-(3,5-difluorophenyl)-1H-benzimidazol-2-yl)ethyl)-9H-purin-6-amine] was tested. Which Ki did it give?
Answer: 0.0084 µM

Question: How did the Ki turn out when `C[C@H](Nc1ncnc(N)c1C#N)c1nc2cnccn2c1-c1ccccn1` [4-amino-6-(((1S)-1-(3-(2-pyridinyl)imidazo[1,2-a]pyrazin-2-yl)ethyl)amino)-5-pyrimidinecarbonitrile] was run?
Answer: 2.16 µM

Question: For `CC[C@H](Nc1ncnc(N)c1C#N)c1nc2cccc(C(F)(F)F)c2n1CC1CC1` [4-amino-6-(((1S)-1-(1-(cyclopropylmethyl)-7-(trifluoromethyl)-1H-benzimidazol-2-yl)propyl)amino)-5-pyrimidinecarbonitrile], which Ki is on record?
Answer: 0.0531 µM

Question: For `C[C@@H](Nc1ncnc(N)c1C#N)c1nc2cccc(S(C)(=O)=O)c2n1C1CC1` [4-amino-6-(((1R)-1-(1-cyclopropyl-7-(methylsulfonyl)-1H-benzimidazol-2-yl)ethyl)amino)-5-pyrimidinecarbonitrile], which Ki is on record?
Answer: 1 µM

Question: For `C[C@H](Nc1ncnc(N)c1C#N)c1nc2ncccc2n1-c1ccccn1` [4-amino-6-(((1S)-1-(1-(2-pyridinyl)-1H-imidazo[4,5-b]pyridin-2-yl)ethyl)amino)-5-pyrimidinecarbonitrile], which Ki is on record?
Answer: 1.62 µM

Question: Which Ki does the source give for `C[C@H](Nc1ncnc(N)c1C#N)c1nc2cccc(C(=O)NC3CC3)c2n1C1CC1` [2-((1S)-1-((6-amino-5-cyano-4-pyrimidinyl)amino)ethyl)-N,1-dicyclopropyl-1H-benzimidazole-7-carboxamide] here?
Answer: 0.0175 µM

Question: How did the Ki turn out when `C[C@@H](Nc1ncnc(N)c1C#N)c1nc2cc(F)ccc2n1-c1ccccn1` [4-amino-6-(((1R)-1-(5-fluoro-1-(2-pyridinyl)-1H-benzimidazol-2-yl)ethyl)amino)-5-pyrimidinecarbonitrile] was run?
Answer: 0.007 µM

Question: With `C[C@H](Nc1ncnc(N)c1C#N)c1nc2ccccn2c1-c1ccc(Cl)cc1` [4-amino-6-(((1S)-1-(3-(4-chlorophenyl)imidazo[1,2-a]pyridin-2-yl)ethyl)amino)-5-pyrimidinecarbonitrile] as the compound, how does the Ki read?
Answer: 0.074 µM

Question: How did the Ki turn out when `C[C@@H](Nc1ncnc(N)c1C#N)c1nc2c(F)cccc2n1-c1cc(F)cc(F)c1` [4-amino-6-(((1R)-1-(1-(3,5-difluorophenyl)-4-fluoro-1H-benzimidazol-2-yl)ethyl)amino)-5-pyrimidinecarbonitrile] was run?
Answer: 4.18 µM

Question: Which Ki does the source give for `CC[C@H](Nc1ncnc(N)c1C#N)c1nc2cccc(S(C)(=O)=O)c2n1Cc1ccc(F)cc1` [4-amino-6-(((1S)-1-(1-(4-fluorobenzyl)-7-(methylsulfonyl)-1H-benzimidazol-2-yl)propyl)amino)-5-pyrimidinecarbonitrile] here?
Answer: 0.0274 µM

Question: With `C[C@H](Nc1ncnc(N)c1C#N)c1nc2ccc(Cl)cc2n1-c1cc(F)cc(F)c1` [4-amino-6-(((1S)-1-(6-chloro-1-(3,5-difluorophenyl)-1H-benzimidazol-2-yl)ethyl)amino)-5-pyrimidinecarbonitrile] as the compound, how does the Ki read?
Answer: 0.0027 µM

Question: `C[C@H](Nc1ncnc(N)c1C#N)c1nc2cccc(S(C)(=O)=O)c2n1Cc1cc(F)cc(F)c1` [4-amino-6-(((1S)-1-(1-(3,5-difluorobenzyl)-7-(methylsulfonyl)-1H-benzimidazol-2-yl)ethyl)amino)-5-pyrimidinecarbonitrile] was tested. Which Ki did it give?
Answer: 0.295 µM
